Measured values published in the supplement of paper PMC10307832.

How the values were obtained:
Test in all cases: relative viability (nuclei count vs DMSO), 5 days (fraction); higher = more cells survive
Selumetinib + Alpelisib = compound: Cn1cnc2c(F)c(Nc3ccc(Br)cc3Cl)c(C(=O)NOCCO)cc21 [Selumetinib] + Cc1nc(NC(=O)N2CCC[C@H]2C(N)=O)sc1-c1ccnc(C(C)(C)C(F)(F)F)c1 [Alpelisib] (partner 2 µM)
How it was run: (§1)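 Medians of duplicate plates are given as relative viability. That measure is the nuclei count in treated wells divided by the count in vehicle wells. Counts were taken on 4× images of lung cancer cell lines in 1536-well plates, 5 days after pin-tool dosing the day after seeding with one drug alone or a fixed anchor-drug dose plus five library-drug doses (not always all listed) in √10 steps.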

Venetoclax + Phenformin = compound: CC1(C)CCC(CN2CCN(c3ccc(C(=O)NS(=O)(=O)c4ccc(NCC5CCOCC5)c([N+](=O)[O-])c4)c(Oc4cnc5[nH]ccc5c4)c3)CC2)=C(c2ccc(Cl)cc2)C1 [Venetoclax] + N=C(N)NC(=N)NCCc1ccccc1 [Phenformin] (partner 250 µM)
How it was run: as §1

Venetoclax + Navitoclax = compound: CC1(C)CCC(CN2CCN(c3ccc(C(=O)NS(=O)(=O)c4ccc(NCC5CCOCC5)c([N+](=O)[O-])c4)c(Oc4cnc5[nH]ccc5c4)c3)CC2)=C(c2ccc(Cl)cc2)C1 [Venetoclax] + CC1(C)CCC(c2ccc(Cl)cc2)=C(CN2CCN(c3ccc(C(=O)NS(=O)(=O)c4ccc(N[C@H](CCN5CCOCC5)CSc5ccccc5)c(S(=O)(=O)C(F)(F)F)c4)cc3)CC2)C1 [Navitoclax] (partner 0.5 µM)
How it was run: as §1

Selumetinib + Luminespib = compound: Cn1cnc2c(F)c(Nc3ccc(Br)cc3Cl)c(C(=O)NOCCO)cc21 [Selumetinib] + CCNC(=O)c1noc(-c2cc(C(C)C)c(O)cc2O)c1-c1ccc(CN2CCOCC2)cc1 [Luminespib] (partner 0.01 µM)
How it was run: as §1

Cell Line | relative viability (Selumetinib + Alpelisib; first compound 0.02 µM) | relative viability (Selumetinib + Alpelisib; first compound 0.06325 µM) | relative viability (Selumetinib + Alpelisib; first compound 0.2 µM) | relative viability (Selumetinib + Alpelisib; first compound 0.6325 µM) | relative viability (Venetoclax + Phenformin; first compound 0.01 µM) | relative viability (Venetoclax + Phenformin; first compound 0.03162 µM) | relative viability (Venetoclax + Phenformin; first compound 0.1 µM) | relative viability (Venetoclax + Phenformin; first compound 0.3162 µM) | relative viability (Venetoclax + Phenformin; first compound 1 µM) | relative viability (Venetoclax + Navitoclax; first compound 0.01 µM) | relative viability (Venetoclax + Navitoclax; first compound 0.03162 µM) | relative viability (Venetoclax + Navitoclax; first compound 0.1 µM) | relative viability (Venetoclax + Navitoclax; first compound 0.3162 µM) | relative viability (Venetoclax + Navitoclax; first compound 1 µM) | relative viability (Selumetinib + Luminespib; first compound 0.02 µM) | relative viability (Selumetinib + Luminespib; first compound 0.06325 µM) | relative viability (Selumetinib + Luminespib; first compound 0.2 µM) | relative viability (Selumetinib + Luminespib; first compound 0.6325 µM)
HCC-366 | 0.361 | 0.273 | 0.196 | 0.158 | 0.553 | 0.613 | 0.578 | 0.574 | 0.545 | 1.04 | 1 | 1.01 | 0.987 | 0.993 | – | – | – | –
HCC-827 | 0.961 | 0.786 | 0.863 | 0.791 | 0.473 | 0.497 | 0.344 | 0.406 | 0.394 | 1.02 | 0.996 | 1.04 | 1.04 | 1.01 | 0.621 | 0.694 | 0.438 | 0.244
HOP-62 | 0.86 | 0.962 | 0.965 | 0.465 | 0.622 | 0.655 | 0.67 | 0.649 | 0.64 | 0.988 | 1.17 | 1.09 | 1.13 | 1 | 0.862 | 0.754 | 0.656 | 0.384
IA-LM | 0.431 | 0.237 | 0.216 | 0.191 | – | – | – | – | – | 0.84 | 0.899 | 0.807 | 0.763 | 0.662 | – | – | – | –
LC-2-ad | 0.862 | 0.82 | 0.66 | 0.848 | 0.595 | 0.606 | 0.551 | 0.616 | 0.565 | 0.441 | 0.4 | 0.531 | 0.52 | 0.466 | 0.912 | 0.882 | 0.88 | 0.83
LCLC-97TM1 | 0.275 | 0.25 | 0.259 | 0.185 | 0.463 | 0.494 | 0.461 | 0.449 | 0.385 | – | 0.608 | 0.44 | 0.361 | 0.446 | 0.79 | 0.622 | 0.415 | 0.411
LCLC-103H | 0.851 | 0.917 | 0.841 | 0.874 | 0.335 | 0.298 | 0.352 | 0.313 | 0.333 | – | – | – | – | – | 0.922 | 0.876 | 0.831 | 0.697
LK-2 | 1.01 | 1.13 | 0.949 | 0.985 | 0.479 | 0.605 | 0.491 | 0.617 | 0.357 | 0.809 | 0.945 | 0.763 | 0.816 | 0.845 | 0.151 | 0.136 | 0.19 | 0.165
LOU-NH91 | 0.648 | 0.6 | 0.577 | 0.586 | 0.641 | 0.784 | 0.615 | 0.742 | 0.698 | 0.594 | 0.832 | 0.676 | 0.77 | 0.659 | 0.381 | 0.302 | 0.329 | 0.359
LU99A | 0.551 | 0.501 | 0.489 | 0.573 | 0.852 | 0.92 | 0.799 | 0.878 | 0.822 | 0.783 | 0.936 | 0.708 | 0.833 | 0.741 | 0.246 | 0.259 | 0.202 | 0.201
LXF-289 | 0.928 | 0.854 | 0.841 | 0.762 | 0.482 | 0.538 | 0.509 | 0.503 | 0.505 | 0.926 | 0.988 | 0.952 | 0.868 | 0.829 | 0.692 | 0.688 | 0.491 | 0.544
NCI-H23 | 0.628 | 0.589 | 0.438 | 0.358 | 0.762 | 0.751 | 0.815 | 0.8 | 0.719 | 0.869 | 0.774 | 0.774 | 0.82 | 0.704 | 0.24 | 0.215 | 0.188 | 0.175
NCI-H358 | 0.645 | 0.472 | 0.39 | 0.305 | 0.369 | 0.291 | 0.282 | 0.406 | 0.325 | – | – | – | – | – | 0.284 | 0.148 | 0.292 | 0.127
NCI-H522 | – | – | – | – | 0.647 | 0.735 | 0.561 | 0.613 | 0.637 | – | – | – | – | – | 1.1 | 1.14 | 0.887 | 0.759
NCI-H650 | 1.33 | 1.08 | 1.19 | 1.09 | 0.439 | 0.487 | 0.438 | 0.488 | 0.435 | – | – | – | – | – | 0.836 | 0.677 | 0.73 | 0.651
NCI-H661 | 0.653 | 0.598 | 0.501 | 0.606 | 0.298 | 0.278 | 0.291 | 0.28 | 0.262 | – | – | – | – | – | 0.977 | 0.929 | 0.942 | 0.864
NCI-H1299 | 1.04 | 1.03 | 1.03 | 0.697 | – | – | – | – | – | 1.07 | 1.04 | 1.01 | 1.01 | 1 | – | – | – | –
NCI-H1563 | 0.969 | 0.838 | 0.964 | 0.877 | 0.728 | 0.649 | 0.662 | 0.701 | 0.659 | – | – | – | – | – | 0.507 | 0.499 | 0.527 | 0.52
NCI-H1623 | – | – | – | – | 0.556 | 0.607 | 0.597 | 0.64 | 0.63 | – | – | – | – | – | 0.41 | 0.352 | 0.394 | 0.41
NCI-H1650 | – | – | – | – | 0.515 | 0.479 | 0.541 | 0.534 | 0.377 | 1.14 | 1.3 | – | 1.02 | 0.968 | 0.194 | 0.2 | 0.198 | 0.202
NCI-H1703 | 0.368 | 0.25 | 0.327 | 0.314 | – | – | – | – | – | 1.33 | 1.24 | 0.969 | 1.01 | 1.04 | – | – | – | –
NCI-H2342 | – | – | – | – | 0.763 | 0.531 | 0.601 | 0.568 | 0.563 | – | – | – | – | – | 0.655 | 0.64 | 0.677 | 0.69
SW 900 | – | – | – | – | 0.385 | 0.702 | 0.528 | 0.706 | 0.623 | – | – | – | – | – | 0.19 | 0.131 | 0.159 | 0.155
